Source: ChEMBL document CHEMBL4616632, “Discovery of Cyclic Boronic Acid QPX7728, an Ultrabroad-Spectrum Inhibitor of Serine and Metallo-β-lactamases” (J Med Chem, 2020)

Tests used:
[1] = system: Pseudomonas aeruginosa; experiment: Inhibition of Pseudomonas aeruginosa PAM 1154 KPC-2 assessed as assessed as minimum potentiating concentration of compound needed to reduce the MIC of biapenem by 64 fold
[2] = Ratio of inhibition of Pseudomonas aeruginosa PAM 1032 KPC-2 assessed as minimum potentiating concentration of compound needed to reduce the MIC of biapenem by 64 fold to inhibition of Pseudomonas aeruginosa PAM 1154 KPC-2 assessed as assessed as minimum potentiating concentration of compound needed to reduce the MIC of biapenem by 64 fold
[3] = system: Pseudomonas aeruginosa; experiment: Inhibition of Pseudomonas aeruginosa PAM 1032 KPC-2 assessed as minimum potentiating concentration of compound needed to reduce the MIC of biapenem by 64 fold
[4] = Oral bioavailability in rat at 50 to 75 mg/kg by HPLC/MS analysis; assay type: ADME, organism-based; conditions: in vivo
[5] = system: Acinetobacter baumannii; experiment: Inhibition of Acinetobacter baumannii AB1053 OXA-72 assessed as minimum concentration of compound needed to reduce the MIC of meropenem to 8 ug/ml
[6] = system: Escherichia coli; experiment: Inhibition of Escherichia coli EC302 TEM-10 assessed as minimum concentration of compound needed to reduce the MIC of aztreonam to 4 ug/ml
[7] = system: Escherichia coli; experiment: Inhibition of Escherichia coli ECM6619 TEM-10 assessed as minimum concentration of compound needed to reduce the MIC of aztreonam to 4 ug/ml
[8] = system: Klebsiella pneumoniae; experiment: Inhibition of Klebsiella pneumoniae KP1160 IMP-26 assessed as minimum concentration of compound needed to reduce the MIC of meropenem to 1 ug/ml
[9] = system: Klebsiella pneumoniae; experiment: Inhibition of Klebsiella pneumoniae KP1081 NDM-1 assessed as minimum concentration of compound required to reduce the MIC of biapenem to 1 ug/ml
[10] = target: Beta-lactamase (Klebsiella pneumoniae) (UniProt Q93LQ9); experiment: Inhibition of Klebsiella pneumoniae KP1004 KPC-2 assessed as minimum concentration of compound needed to reduce the MIC of aztreonam to 4 ug/ml
[11] = system: Enterobacter cloacae; experiment: Inhibition of Enterobacter cloacae ECL1002 AmpC assessed as minimum concentration of compound needed to reduce the MIC of aztreonam to 4 ug/ml
[12] = system: Escherichia coli; experiment: Inhibition of Escherichia coli KP308 SHV-5 assessed as minimum concentration of compound required to reduce the MIC of aztreonam to 4 ug/ml
[13] = system: Pseudomonas aeruginosa; experiment: Inhibition of Pseudomonas aeruginosa PAM 2035 AmpC assessed as minimum concentration of compound needed to reduce the MIC of aztreonam to 4 ug/ml
[14] = system: Klebsiella pneumoniae; experiment: Inhibition of Klebsiella pneumoniae KP1009 CTX-M-15 assessed as minimum concentration of compound required to reduce the MIC of aztreonam to 4 ug/ml
[15] = system: Klebsiella pneumoniae; experiment: Inhibition of Klebsiella pneumoniae KP1054 VIM-1 assessed as minimum concentration of compound required to reduce the MIC of biapenem to 1 ug/ml
[16] = target: Beta-lactamase OXA-23 (Acinetobacter baumannii) (UniProt Q9L4P2); experiment: Inhibition of Acinetobacter baumannii AB1054 OXA-23 assessed as minimum concentration of compound needed to reduce the MIC of meropenem to 8 ug/ml
[17] = system: Escherichia coli; experiment: Inhibition of Escherichia coli ECM6625 SHV-5 assessed as minimum concentration of compound needed to reduce the MIC of aztreonam to 4 ug/ml
[18] = system: Escherichia coli; experiment: Inhibition of Escherichia coli EC308 SHV-5 assessed as minimum concentration of compound needed to reduce the MIC of aztreonam to 4 ug/ml
[19] = target: Beta-lactamase (Klebsiella pneumoniae) (UniProt Q93LQ9); experiment: Inhibition of Klebsiella pneumoniae KP1004 KPC-2 assessed as minimum concentration of compound needed to reduce the MIC of biapenem to 1 ug/ml
[20] = Inhibition of recombinant Escherichia coli NDM-1 using imipenem as substrate preincubated for 10 mins followed by substrate addition and measured every 30 secs for 30 mins by spectrophotometric analysis
[21] = target: Class A carbapenemase KPC-2 (Escherichia coli, UniProt A8DS27); experiment: Inhibition of recombinant Escherichia coli KPC-2 using nitrocefin as substrate preincubated for 10 mins followed by substrate addition and measured every 10 secs for 10 mins by spectrophotometric analysis
[22] = system: Klebsiella pneumoniae; experiment: Inhibition of Klebsiella pneumoniae KP1081 NDM-1 assessed as minimum concentration of compound needed to reduce the MIC of biapenem to 1 ug/ml
[23] = Inhibition of recombinant Escherichia coli OXA-48 using nitrocefin as substrate preincubated for 10 mins followed by substrate addition and measured every 10 secs for 10 mins by spectrophotometric analysis
[24] = system: Klebsiella pneumoniae; experiment: Inhibition of Klebsiella pneumoniae KP1086 OXA-48 assessed as minimum concentration of compound needed to reduce the MIC of biapenem to 1 ug/ml

Sequence of Beta-lactamase (Klebsiella pneumoniae) (Q93LQ9 as listed by the source): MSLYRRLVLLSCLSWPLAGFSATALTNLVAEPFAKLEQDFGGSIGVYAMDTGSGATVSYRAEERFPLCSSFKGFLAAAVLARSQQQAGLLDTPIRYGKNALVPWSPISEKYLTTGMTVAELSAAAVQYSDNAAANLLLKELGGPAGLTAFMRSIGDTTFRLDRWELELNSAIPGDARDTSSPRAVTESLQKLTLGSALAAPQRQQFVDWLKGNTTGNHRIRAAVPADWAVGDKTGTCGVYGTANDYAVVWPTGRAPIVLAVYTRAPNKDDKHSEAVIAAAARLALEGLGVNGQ
Sequence of Beta-lactamase OXA-23 (Acinetobacter baumannii) (Q9L4P2 whole entry): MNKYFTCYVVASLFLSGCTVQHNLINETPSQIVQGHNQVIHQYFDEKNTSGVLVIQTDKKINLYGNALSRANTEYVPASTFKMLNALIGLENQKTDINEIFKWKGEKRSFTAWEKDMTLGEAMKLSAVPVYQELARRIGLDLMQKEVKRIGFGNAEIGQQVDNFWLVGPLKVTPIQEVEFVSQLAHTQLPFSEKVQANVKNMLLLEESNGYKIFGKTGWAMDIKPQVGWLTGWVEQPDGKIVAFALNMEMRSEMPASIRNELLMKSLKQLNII
Sequence of Class A carbapenemase KPC-2 (A8DS27 whole entry): as the sequence (Q93LQ9 as listed by the source) above

Compound	Activity [1] [µg/mL]	Ratio [2]	Activity [3] [µg/mL]	MEC [6] [µg/mL]	MEC [10] [µg/mL]	MEC [11] [µg/mL]	MEC [13] [µg/mL]	MEC [14] [µg/mL]	MEC [18] [µg/mL]	other results
O=C(CSC1CNC1)N[C@H]1Cc2cccc(C(=O)O)c2OB1O	2.5	1	2.5	–	–	–	–	–	–	–
CCOC(=O)OCOC(=O)c1c(OC)ccc2c1OB(O)[C@@H](Sc1nncs1)C2	–	–	–	–	–	–	–	–	–	bioavailability [4]: 64%
COc1ccc2c(c1C(=O)O)OB(O)C1CCC21 (stereo not drawn)	–	–	–	10	5	10	10	10	–	MEC [5]: 5 µg/mL; MEC [7]: 10 µg/mL; MEC [8]: 20 µg/mL; MEC [9]: 10 µg/mL; MEC [12]: 10 µg/mL; MEC [15]: 5 µg/mL; MEC [16]: 10 µg/mL; MEC [17]: 10 µg/mL
CSCC(=O)N[C@H]1Cc2ccc(Sc3nnc(N)s3)c(C(=O)O)c2OB1O	–	–	–	2.5	5	2.5	> 20	2.5	< 0.3	–
COc1ccc2c(c1C(=O)O)OB(O)[C@@H](NC(=O)CSC)C2	5	2	10	< 0.3	< 0.3	0.6	20	< 0.3	< 0.3	–
CSCC(=O)N[C@H]1Cc2ccc(SC)c(C(=O)O)c2OB1O	–	–	–	1.25	0.6	1.25	20	0.6	0.04	–
COc1ccc2c(c1C(=O)O)OB(O)[C@@H](NC(=O)Cc1cccs1)C2	5	8	40	–	–	–	–	–	–	–
CSCC(=O)N[C@H]1Cc2ccc(SC3CNC3)c(C(=O)O)c2OB1O	–	–	–	5	1.25	10	20	0.6	0.6	–
O=C(O)c1nccc2c1OB(O)[C@@H]1C[C@H]21	–	–	–	0.3	0.6	5	2.5	2.5	–	MEC [5]: 0.3 µg/mL; MEC [7]: 0.3 µg/mL; MEC [8]: > 20 µg/mL; MEC [9]: 2.5 µg/mL; MEC [12]: 0.6 µg/mL; MEC [15]: 0.3 µg/mL; MEC [16]: 1.25 µg/mL; MEC [17]: 0.6 µg/mL
COc1ccc2c(c1C(=O)OCOC(=O)C(C)C)OB(O)[C@@H](Sc1nncs1)C2	–	–	–	–	–	–	–	–	–	bioavailability [4]: 100%
CSCC(=O)N[C@H]1Cc2ccc(OCCO)c(C(=O)O)c2OB1O	–	–	–	2.5	1.25	5	> 20	1.25	< 0.3	–
CSCC(=O)N[C@H]1Cc2cccc(C(=O)O)c2OB1O	5	8	80	5	0.6	0.6	2.5	0.6	< 0.3	–
COc1ccc2c(c1C(=O)O)OB(O)[C@@H](NC(=O)CSC1CNC1)C2	5	1	5	–	–	–	–	–	–	–
Nc1nnc(SCC(=O)N[C@H]2Cc3cccc(C(=O)O)c3OB2O)s1	–	–	–	–	–	–	–	–	–	Activity [19]: 0.08 µg/mL; Ki [20]: 7400 nM; Ki [21]: 21 nM; Activity [22]: > 20 µg/mL; Ki [23]: 0.5 nM; Activity [24]: 2.5 µg/mL
COc1ccc2c(c1C(=O)O)OB(O)C1(CO)CC21 (stereo not drawn)	–	–	–	5	1.25	2.5	20	10	–	MEC [5]: 2.5 µg/mL; MEC [7]: 5 µg/mL; MEC [8]: 2.5 µg/mL; MEC [9]: 0.6 µg/mL; MEC [12]: 5 µg/mL; MEC [15]: 0.16 µg/mL; MEC [16]: 10 µg/mL; MEC [17]: 5 µg/mL
